Experimental data as given in ChEMBL document CHEMBL3870340, “Cytotoxic activity, apoptosis induction and structure-activity relationship of 8-OR-2-aryl-3,4-dihydroisoquinolin-2-ium salts as promising anticancer agents” (Bioorg Med Chem Lett, 2017).
pIC50: −log10 of the molar value. Calls of active or inactive are those of the source. The calls are words filed in the database; no cut-off is given here.

Key:
MKN-45 [1] = assay: Induction of apoptosis in human MKN45 cells assessed as late apoptotic cells at 2.03 uM after 48 hrs by annexin V/PI double staining based flow cytometry (reference value: 0%); type: functional
[2] = Cytotoxicity against human NB4 cells assessed as decrease in cell viability after 48 hrs by MTT assay; type: functional, cell-based; conditions: NB-4, 48 h
[3] = Cytotoxicity against human MKN45 cells assessed as decrease in cell viability after 48 hrs by MTT assay; type: functional, cell-based; conditions: MKN-45, 48 h
MKN-45 [4] = assay: Induction of apoptosis in human MKN45 cells assessed as necrotic cells at 10.1 uM after 48 hrs by annexin V/PI double staining based flow cytometry (reference value: 0.1%); type: functional
MKN-45 [5] = assay: Induction of apoptosis in human MKN45 cells after 48 hrs by annexin V/PI double staining based flow cytometry; type: functional, cell-based
NB-4 [6] = assay: Induction of morphological changes in human NB4 cells assessed as apoptotic features at 0.46 to 11.5 uM after 48 hrs by acridine orange/ethidium bromide staining based fluorescence microscopy; type: functional, cell-based
MKN-45 [7] = assay: Induction of apoptosis in human MKN45 cells assessed as early apoptotic cells at 2.03 uM after 48 hrs by annexin V/PI double staining based flow cytometry (reference value: 0.1%); type: functional
NB-4 [8] = assay: Induction of apoptosis in human NB4 cells after 48 hrs by annexin V/PI double staining based flow cytometry; type: functional, cell-based
MKN-45 [9] = assay: Induction of apoptosis in human MKN45 cells assessed as viable cells at 10.1 uM after 48 hrs by annexin V/PI double staining based flow cytometry (reference value: 99.8%); type: functional; conditions: MKN-45, 48 h, read-out: Activity
[10] = Cytotoxicity against primary porcine fetal kidney cells assessed as decrease in cell viability after 48 hrs by MTT assay; type: toxicity, cell-based; conditions: pig (Sus scrofa)
NB-4 [11] = assay: Induction of apoptosis in human NB4 cells assessed as necrotic cells at 11.5 uM after 48 hrs by annexin V/PI double staining based flow cytometry (reference value: 0.6%); type: functional
MKN-45 [12] = assay: Induction of morphological changes in human MKN45 cells assessed as condensation of cell nuclei and chromatins at 0.41 uM after 48 hrs by acridine orange/ethidium bromide staining based fluorescence microscopy; type: functional
NB-4 [13] = assay: Induction of apoptosis in human NB4 cells assessed as viable cells at 11.5 uM after 48 hrs by annexin V/PI double staining based flow cytometry (reference value: 96.4%); type: functional; conditions: NB-4, 48 h, read-out: Activity
NB-4 [14] = assay: Induction of apoptosis in human NB4 cells assessed as necrotic cells at 2.30 uM after 48 hrs by annexin V/PI double staining based flow cytometry (reference value: 0.6%); type: functional
NB-4 [15] = assay: Induction of apoptosis in human NB4 cells assessed as early apoptotic cells at 2.30 uM after 48 hrs by annexin V/PI double staining based flow cytometry (reference value: 2.3%); type: functional
NB-4 [16] = assay: Induction of apoptosis in human NB4 cells assessed as early apoptotic cells at 11.5 uM after 48 hrs by annexin V/PI double staining based flow cytometry (reference value: 2.3%); type: functional
NB-4 [17] = assay: Induction of apoptosis in human NB4 cells assessed as late apoptotic cells at 11.5 uM after 48 hrs by annexin V/PI double staining based flow cytometry (reference value: 0.7%); type: functional
[18] = Antiproliferative activity against human MKN45 cells at 20 uM after 48 hrs by MTT assay relative to control; type: functional; conditions: MKN-45, 48 h, read-out: GI
MKN-45 [19] = assay: Induction of morphological changes in human MKN45 cells assessed as apoptotic cells at 2.03 uM after 48 hrs by acridine orange/ethidium bromide staining based fluorescence microscopy; type: functional, cell-based
MKN-45 [20] = assay: Induction of apoptosis in human MKN45 cells after 48 hrs by acridine orange/ethidium bromide staining based fluorescence microscopy; type: functional, cell-based
[21] = Cytotoxicity against primary goat fetal fibroblast assessed as decrease in cell viability after 48 hrs by MTT assay; type: toxicity; conditions: goat (Capra hircus), primary goat fetal fibroblasts
MKN-45 [22] = assay: Induction of apoptosis in human MKN45 cells assessed as necrotic cells at 2.03 uM after 48 hrs by annexin V/PI double staining based flow cytometry (reference value: 0.1%); type: functional
MKN-45 [23] = assay: Induction of apoptosis in human MKN45 cells assessed as early apoptotic cells at 10.1 uM after 48 hrs by annexin V/PI double staining based flow cytometry (reference value: 0.1%); type: functional
MKN-45 [24] = assay: Induction of morphological changes in human MKN45 cells assessed as late apoptotic cells at 10.1 uM after 48 hrs by acridine orange/ethidium bromide staining based fluorescence microscopy; type: functional, cell-based
MKN-45 [25] = assay: Induction of apoptosis in human MKN45 cells assessed as late apoptotic cells at 10.1 uM after 48 hrs by annexin V/PI double staining based flow cytometry (reference value: 0%); type: functional
MKN-45 [26] = assay: Induction of morphological changes in human MKN45 cells assessed as change in cytomembrane permeability at 0.41 uM after 48 hrs by acridine orange/ethidium bromide staining based fluorescence microscopy; type: functional, cell-based
NB-4 [27] = assay: Induction of apoptosis in human NB4 cells assessed as viable cells at 2.30 uM after 48 hrs by annexin V/PI double staining based flow cytometry (reference value: 96.4%); type: functional; conditions: NB-4, 48 h, read-out: Activity
MKN-45 [28] = assay: Induction of morphological changes in human MKN45 cells assessed as pyknosis in early apoptotic events at 0.41 uM after 48 hrs by acridine orange/ethidium bromide staining based fluorescence microscopy; type: functional, cell-based
MKN-45 [29] = assay: Induction of morphological changes in human MKN45 cells assessed as cell shrinkage at 0.41 uM after 48 hrs by acridine orange/ethidium bromide staining based fluorescence microscopy; type: functional
[30] = Antiproliferative activity against human NB4 cells at 5 uM after 48 hrs by MTT assay relative to control; type: functional; conditions: NB-4, 48 h, read-out: GI
MKN-45 [31] = assay: Induction of apoptosis in human MKN45 cells assessed as viable cells at 2.03 uM after 48 hrs by annexin V/PI double staining based flow cytometry (reference value: 99.8%); type: functional; conditions: MKN-45, 48 h, read-out: Activity
NB-4 [32] = assay: Induction of apoptosis in human NB4 cells assessed as late apoptotic cells at 2.30 uM after 48 hrs by annexin V/PI double staining based flow cytometry (reference value: 0.7%); type: functional

Structure (SMILES): COc1cccc2c1C=[N+](c1ccccc1I)CC2.[Br-]
- Activity (MKN-45 [1]): 4.6%
- pIC50 [2]: 5.64
- pIC50 [3]: 5.69
- Activity (MKN-45 [4]): 1.9%
- Activity (MKN-45 [5]): Dose-dependent effect
- Activity (NB-4 [6]): Active
- Activity (MKN-45 [7]): 12.8%
- Activity (NB-4 [8]): Dose-dependent effect
- viability at 10.1 µM (MKN-45 [9]): 46%
- IC50 at 48 h [10]: 2410 nM
- Activity (NB-4 [11]): 0.3%
- Activity (MKN-45 [12]): Active
- viability at 11.5 µM (NB-4 [13]): 77.9%
- Activity (NB-4 [14]): 0%
- Activity (NB-4 [15]): 7.7%
- Activity (NB-4 [16]): 14.7%
- Activity (NB-4 [17]): 7.1%
- inhibition of growth at 20 µM [18]: 90.9%
- Activity (MKN-45 [19]): Active
- Activity (MKN-45 [20]): Dose-dependent effect
- IC50 at 48 h [21]: 3510 nM
- Activity (MKN-45 [22]): 0.4%
- Activity (MKN-45 [23]): 20.1%
- Activity (MKN-45 [24]): Active
- Activity (MKN-45 [25]): 32%
- Activity (MKN-45 [26]): Active
- viability at 2.3 µM (NB-4 [27]): 90.1%
- Activity (MKN-45 [28]): Active
- Activity (MKN-45 [29]): Active
- inhibition of growth at 5 µM [30]: 49.7%
- viability at 2.03 µM (MKN-45 [31]): 82.2%
- Activity (NB-4 [32]): 2.2%
